Results as given in patent US7569569B2, “Pyrrolo[2,3-d]pyrimidine compounds” (Pfizer Inc., priority 1998, dated 2009).

| SMILES | melting point |
| --- | --- |
| Clc1c[nH]c2ncnc(N3CCC4CCCCC43)c12 (stereo not drawn) [Example 62, 5-Chloro-4-(octahydro-indol-1-yl)-7H-pyrrolo[2,3-d]pyrimidine] | 193 °C |
| C#Cc1c[nH]c2ncnc(N3CCCCC3)c12 [Example 79, 5-Ethynyl-4-piperidin-1-yl-7H-pyrrolo[2,3-d]pyrimidine] | 179 to 181 °C |
| N#Cc1c[nH]c2ncnc(N3CCCCC3)c12 [Example 78, 4-Piperidin-1-yl-7H-pyrrolo[2,3-d]pyrimidine-5-carbonitrile] | 209 to 211 °C |
| c1nc(N2CCCCCCC2)c2cc[nH]c2n1 [Example 17, 4-Azocan-1-yl-7H-pyrrolo[2,3-d]pyrimidine] | 225 to 226 °C |
| Clc1c[nH]c2ncnc(N3CCCC4CCCCC43)c12 (stereo not drawn) [Example 39, 1-(5-Chloro-7H-pyrrolo[2,3-d]pyrimidin-4-yl)-decahydro-quinoline] | 190 to 192 °C |
| Clc1c[nH]c2ncnc(N3CCCCC3)c12 [Example 61, 5-Chloro-4-piperidin-1-yl-7H-pyrrolo[2,3-d]pyrimidine] | 170 to 172 °C |
| c1nc(N2CCCCCC2)c2cc[nH]c2n1 [Example 27, 4-Azepan-1-yl-7H-pyrrolo[2,3-d]pyrimidine] | 210 °C |
| CCCC1CCCCN1c1ncnc2[nH]ccc12 (stereo not drawn) [Example 24, 4-(2-Propyl-piperidin-1-yl)-7H-pyrrolo[2,3-d]pyrimidine] | 106 to 107 °C |
| Cc1cc2c(N(C)C3CCCCC3)ncnc2[nH]1 [Example 59, Cyclohexyl-methyl-(6-methyl-7H-pyrrolo[2,3-d]pyrimidin-4-yl)-amine] | 221 °C (dec.) |
